# Measured values: patent US20240246984A1, “HETEROCYCLIC JAK INHIBITOR” (BEIJING INNOCARE PHARMA TECH CO., LTD., priority 2020, published 2024)
# pIC50: −log10 of the molar value.
# Legend:
# [1] = test system: IL-12-induced IFN-γ secretion in NK92 cells; assay: Inhibition of IL-12-induced IFN-γ secretion in NK92 cells (ELISA); type: cell-based; details: Homo sapiens, IL-12 stimulation, 24 hours, read-out: IC50 (NK92IL12/IFN-γ)
# Experimental: The effect of the compounds of the present invention on IFN-γ secretion in IL-12-induced NK92 cells was evaluated by an enzyme-linked immunosorbent assay (ELISA).
# The assay principle was generally described below: IL-12R was mainly expressed in activated T-cells, NK cells (NK92 was an NK cell line), DC cells, and B-cells. When binding to IL-12, it activated the JAK2/TYK2 signal transduction pathway within NK cells and activated T lymphocytes, thereby inducing secretion of IFN-γ.
# The compound was dissolved to 2.5 mM in DMSO, followed by a serial 4-fold dilution with DMSO to a minimum concentration of 0.31 μM. Each concentration was further diluted 50-fold with an FBS-free MEMα medium (Thermofisher. 12561-056).
# NK92 cells (Nanjing Cobioer, CBP60980) were cultured in a complete MEMα medium containing 12.5% FBS (Ausbian, VS500T), 12.5% horse serum (Thermofisher, 16050-122), 0.02 mM folic acid (Sigma, F8758), 0.2 mM inositol (Sigma, 17850), 0.55 mM β-mercaptoethanol (Thermofish, 21985-023), 200 U/mL IL-2 (R&D Systems, 202-1L), and 100 U/mL penicillin-streptomycin mixed liquor (ThermoFisher, 15140122). When covering 80-90% of the culture container surface, the cells were dispersed and plated on a 96-well plate (ThermoFisher, 167425) with 100,000 cells per well (80 μL of the complete MEMα medium without IL-2). The 96-well plate was then incubated overnight in a 37° C., 5% CO2 incubator.
# After overnight incubation, 10 μL of the compound and 10 μL of 50 ng/ml IL-12 (R &D Systems, 219-1L) were added to each well and mixed gently, and the 96-well plate was incubated in the 37° C., 5% CO2 incubator for additional 24 hours. The plate was centrifuged at 800 rpm for 10 minutes at room temperature and 50 μL of the supernatant from each well was transferred to another 96-well plate (Sigma, CLS3695) coated with anti-IFN-γ antibody. The amount of IFN-γ secretion was detected following the instruction from the Human IFN-γ DuoSet ELISA assay kit (R & D Systems, DY285B). In this assay, the group in which IL-12 and the test compound were replaced with the MEMα medium was the non-stimulated control group (100% inhibition), and the group with IL-12 and 0.2% DMSO was the stimulated control group (0% inhibition). The compound inhibition curve was plotted using XLfit software and the IC50 of its inhibition was calculated.
# [2] = biological target: human recombinant TYK2 protein (Homo sapiens, UniProt P29597); assay: TYK2 activity inhibition assay (HTRF kinase detection); type: biochemical; details: 11.25 μM ATP substrate solution
# Experimental: The effect of the compounds of the present invention on the activity of TYK2 was assessed by using an in vitro kinase detection assay.
# The enzymatic activity of TYK2 was assessed by detecting the substrate phosphorylation level in a kinase reaction with a homogeneous time-resolved fluorescence (HTRF) kinase detection kit (Cisbio, 62TK0PEC). A reaction buffer contained an enzyme buffer (1×), 5 mM MgCl2, 1 mM DTT and 0.01% Brij35 from the kit; a human recombinant TYK2 protein (Carna Biosciences, 08-147) was diluted to a kinase reaction solution of 0.25 ng/μL with the reaction buffer; a substrate reaction solution contained 11.25 μM ATP and a biotin-labeled tyrosine kinase substrate diluted to 0.5 μM with the reaction buffer; a detection buffer contained 0.1 ng/μL Eu^3+ labeled cage antibody (Cisbio, 61T66KLB) and 25 nM streptavidin-labeled XL665 (Cisbio, 610SAXLB) in the reaction buffer; the compound was dissolved to 10 μM in DMSO, followed by a serial 4-fold dilution with DMSO to a minimum concentration of 0.061 nM. Each concentration was further diluted 40-fold with the reaction buffer. To a 384-well assay plate (Corning, 3674) were added 4 μL of the compound solutions having a series of concentrations and 2 μL of kinase reaction solutions. After being mixed evenly, the mixtures were incubated at room temperature for 15 minutes, and then 4 μL of the substrate reaction solutions were added. The reaction mixtures were incubated at room temperature for 40 minutes. Then the reaction mixtures were added with 10 μL of detection solutions, mixed evenly, and allowed to stand at room temperature for 30 minutes. An Envision plate reader (Perkin Elmer) was then used to measure the progress of the reaction at wavelengths of 620 nm and 665 nm. The signal value (absorbance at 665 nm/absorbance at 620 nm) was positively correlated with the degree of substrate phosphorylation, therefore the kinase activity of TYK2 was detected. In this assay, the group without TYK2 kinase protein was the 100% inhibition group, and the group with TYK2 kinase protein but without the test compound was the 0% inhibition group. The compound inhibition curve was plotted using XLfit software and the IC50 of its inhibition was calculated.
# [3] = biological target: human recombinant JAK2 protein (Homo sapiens, UniProt O60674); assay: JAK2 activity inhibition assay (HTRF kinase detection); type: biochemical; details: 2.5 μM ATP substrate solution
# Experimental: The effect of the compounds of the present invention on the activity of JAK2 was assessed by using an in vitro kinase detection assay.
# The enzymatic activity of JAK2 was assessed by detecting the substrate phosphorylation level in a kinase reaction with a homogeneous time-resolved fluorescence (HTRF) kinase detection kit (Cisbio, 62TK0PEC). A reaction buffer contained an enzyme buffer (1×), 5 mM MgCl2, 1 mM DTT and 0.01% Brij35 from the kit; a human recombinant JAK2 protein (Carna Biosciences, 08-045) was diluted to a kinase reaction solution of 0.15 ng/μL with the reaction buffer; a substrate reaction solution contained 2.5 μM ATP and a biotin-labeled tyrosine kinase substrate diluted to 0.25 μM with the reaction buffer; a detection buffer contained 0.1 ng/μL Eu^3+ labeled cage antibody (Cisbio, 61T66KLB) and 12.5 nM streptavidin-labeled XL665 (Cisbio, 610SAXLB) in the reaction buffer; the compound was dissolved to 10 μM in DMSO, followed by a serial 4-fold dilution with DMSO to a minimum concentration of 0.061 nM. Each concentration was further diluted 40-fold with the reaction buffer. To a 384-well assay plate (Corning, 3674) were added 4 μL of the compound solutions having a series of concentrations and 2 μL of JAK2 kinase reaction solutions. After being mixed evenly, the mixtures were incubated at room temperature for 15 minutes, and then 4 μL of the substrate reaction solutions were added. The reaction mixtures were incubated at room temperature for 30 minutes. Then the reaction mixtures were added with 10 μL of detection solutions, mixed evenly, and allowed to stand at room temperature for 30 minutes. An Envision plate reader (Perkin Elmer) was then used to measure the progress of the reaction at wavelengths of 620 nm and 665 nm. The signal value (absorbance at 665 nm/absorbance at 620 nm) was positively correlated with the degree of substrate phosphorylation, therefore the kinase activity of JAK2 was detected. In this assay, the group without JAK2 kinase protein was the 100% inhibition group, and the group with JAK2 kinase protein but without the test compound was the 0% inhibition group. The compound inhibition curve was plotted using XLfit software and the IC50 of its inhibition was calculated.
Compound,pIC50 [1],pIC50 [2],pIC50 [3]
"CC(C)(C(=O)N1CCC1)c1ccc(Nc2nc(-c3c(F)cccc3F)n3c2C(=O)NCC3)cc1 [Compound 13, 1-((4-(1-(azetidin-1-yl)-2-methyl-1-oxopropan-2-yl)phenyl)amino)-3-(2,6-difluorophenyl)-6,7-dihydroimidazo[1,5-a]pyrazin-8(5H)-one]",5.97,9.52,8.66
"O=C1NCCn2c(-c3c(F)cccc3F)nc(Nc3ccc(CC(=O)N4CCOCC4)cc3)c21 [Compound 16, 3-(2,6-difluorophenyl)-1-((4-(2-morpholino-2-oxoethyl)phenyl)amino)-6,7-dihydroimidazo[1,5-a]pyrazin-8(5H)-one]",5.84,8.70,8.31
"CC(C)(C(=O)N1CCOCC1)c1ccc(Nc2nc(-c3c(F)cccc3F)n3cc[nH]c(=O)c23)cc1 [Compound 17, 3-(2,6-difluorophenyl)-1-((4-(2-methyl-1-morpholino-1-oxopropan-2-yl)phenyl)amino)imidazo[1,5-a]pyrazin-8(7H)-one]",6.28,10.00,9.52
"CC(C)(C(=O)N1CCOCC1)c1ccc(Nc2nc(-c3c(F)cccc3F)n3c2C(=O)NCC3)cc1 [Compound 18, 3-(2,6-difluorophenyl)-1-((4-(2-methyl-1-morpholino-1-oxopropan-2-yl)phenyl)amino)-6,7-dihydroimidazo[1,5-a]pyrazin-8(5H)-one]",5.85,9.52,8.66
"O=C(c1ccc(Nc2nc(-c3c(F)cccc3Cl)n3cc[nH]c(=O)c23)cc1)N1CCNCC1 [Compound 32, 3-(2-chloro-6-fluorophenyl)-1-((4-(piperazine-1-carbonyl)phenyl)amino)imidazo[1,5-a]pyrazin-8(7H)-one]",6.37,10.00,9.22
"CC(C)(C(=O)N1CCNCC1)c1ccc(Nc2nc(-c3c(F)cccc3Cl)n3cc[nH]c(=O)c23)cc1 [Compound 38, 3-(2-chloro-6-fluorophenyl)-1-((4-(2-methyl-1-oxo-1-(piperazin-1-yl)propan-2-yl)phenyl)amino)imidazo[1,5-a]pyrazin-8(7H)-one]",5.54,9.40,9.30
"O=C(O)c1ccc(Nc2nc(-c3c(F)cccc3F)n3cc[nH]c(=O)c23)cc1 [Compound 39, 4-((3-(2,6-difluorophenyl)-8-oxo-7,8-dihydroimidazo[1,5-a]pyrazin-1-yl)amino)benzoic acid]",5.39,9.30,8.35

# These reach a higher pIC50 [1]. Values come first.
pIC50 [1],pIC50 [2],pIC50 [3],Compound
6.96,9.05,8.26,"CS(=O)(=O)c1ccc(Nc2nc(-c3c(F)cccc3F)n3c2C(=O)NCC3)cc1 [Compound 12, 3-(2,6-difluorophenyl)-1-((4-(methylsulfonyl)phenyl)amino)-6,7-dihydroimidazo[1,5-a]pyrazin-8(5H)-one]"
6.95,9.52,9.30,"O=C(Cc1ccc(Nc2nc(-c3c(F)cccc3F)n3cc[nH]c(=O)c23)cc1)N1CCOCC1 [Compound 14, 3-(2,6-difluorophenyl)-1-((4-(2-morpholino-2-oxoethyl)phenyl)amino)imidazo[1,5-a]pyrazin-8(7H)-one]"
6.83,9.15,8.54,"Cn1cc(Nc2nc(-c3c(F)cccc3Cl)n3cc[nH]c(=O)c23)cn1 [Compound 26, 3-(2-chloro-6-fluorophenyl)-1-((1-methyl-1H-pyrazol-4-yl)amino)imidazo[1,5-a]pyrazin-8(7H)-one]"
7.22,9.70,8.85,"NC(=O)c1ccc(Nc2nc(-c3c(F)cccc3F)n3cc[nH]c(=O)c23)cc1 [Compound 27, 4-((3-(2,6-difluorophenyl)-8-oxo-7,8-dihydroimidazo[1,5-a]pyrazin-1-yl)amino)benzamide]"
7.25,10.00,9.22,"CN1CCN(C(=O)c2ccc(Nc3nc(-c4c(F)cccc4Cl)n4cc[nH]c(=O)c34)cc2)CC1 [Compound 31, 3-(2-chloro-6-fluorophenyl)-1-((4-(4-methylpiperazine-1-carbonyl)phenyl)amino)imidazo[1,5-a]pyrazin-8(7H)-one]"
7.18,10.00,9.40,"CC(C)(C(N)=O)c1ccc(Nc2nc(-c3c(F)cccc3Cl)n3cc[nH]c(=O)c23)cc1 [Compound 33, 2-(4-((3-(2-chloro-6-fluorophenyl)-8-oxo-7,8-dihydroimidazo[1,5-a]pyrazin-1-yl)amino)phenyl)-2-methylpropanamide]"
6.72,9.40,9.22,"CN1CCN(C(=O)C(C)(C)c2ccc(Nc3nc(-c4c(F)cccc4F)n4cc[nH]c(=O)c34)cc2)CC1 [Compound 35, 3-(2,6-difluorophenyl)-1-((4-(2-methyl-1-(4-methylpiperazin-1-yl)-1-oxopropan-2-yl)phenyl)amino)imidazo[1,5-a]pyrazin-8(7H)-one]"
6.57,9.70,9.22,"CN1CCN(C(=O)C(C)(C)c2ccc(Nc3nc(-c4c(F)cccc4Cl)n4cc[nH]c(=O)c34)cc2)CC1 [Compound 37, 3-(2-chloro-6-fluorophenyl)-1-((4-(2-methyl-1-(4-methylpiperazin-1-yl)-1-oxopropan-2-yl)phenyl)amino)imidazo[1,5-a]pyrazin-8(7H)-one]"
